Among the data in PubChem BioAssay (NCI) are GI50 and TGI values, retold here.

Molecules are shown by their SMILES. Values joined by “and” are separate entries in the source; they are usually repeats but may differ in a detail not shown here. Equal entries are not always repeated.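 Growth conditions: 96-well plates. Treatment: test compound, 48 hours, 5 concentrations. Analysis: linear interpolation between bracketing concentrations; unreached endpoints set to highest concentration. GI50: concentration for 50% inhibition of growth. The concentration for full growth arrest is given as TGI.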 Some results are limits rather than exact numbers.

What all share (experiment): DTP human tumour cell line panel, 48 h
The subject of test [1] is CAKI-1 renal.
In test [2] the test system is DU-145 prostate.
In test [3] the test system is HCC-2998 colon.
Test [4] deals with HCT-116 colon.
The test system of test [5] is HCT-15 colon.
In test [6] the test system is HL-60(TB) leukemia.
The test system of test [7] is HOP-92 NSCLC.
Test [8] relates to MALME-3M melanoma.
Test [9] concerns NCI-H226 lung.
For test [10], the system named is SF-295 CNS.

Take `C=C(CN1CCN(c2ccccc2C(F)(F)F)CC1)c1ccc(C(=O)Nc2ccccc2N)cc1`: the GI50 (commonly the concentration giving 50% growth inhibition) in test [1] was 7.97 µM; in test [2], 7.51 µM; in [3] it was 3.83 µM; in test [4], 3.09 µM; in [5] it was 4.88 µM; in test [6], 0.037 µM. For the same compound, the GI50 in test [7] was 1.85 µM; in test [8] it was 4.17 µM; in test [9], 7.79 µM; in [10] it was 5.98 µM. In addition, the concentration for total growth inhibition (TGI) (commonly the concentration giving total growth inhibition) in test [1] was over 51.4 µM; in test [2], over 49.5 µM; in [3] it was 13.9 µM; in test [4], 16.3 µM; in [5] it was over 100 µM; in [6] it was 0.756 µM. Besides, the TGI was 30.9 µM in test [7], over 64.1 µM in [8], 48.1 µM in test [9] and 42.9 µM in test [10].

As to `COC(=O)[C@@H](C)C[C@H](Cc1ccccc1)NC(=O)c1csc([C@@H](C[C@H](C(C)C)N(C)C(=O)C2(NC(=O)[C@H]3CCCCN3C)CCC2)OC(C)=O)n1`, the GI50 in [2] is 0.00351 µM and 0.0025 µM; in [3], 0.00501 µM and 0.00628 µM; in [4] it was 0.00447 µM and 0.0025 µM; in [5] it was 0.0944 µM and 0.0665 µM; in [6] it was 0.00116 µM and < 0.0025 µM; in test [7], 0.000886 µM and 0.0025 µM. Further, the GI50 in test [8] is 0.0025 µM; in [9], 0.0547 µM; in test [10], 0.0169 µM and 0.00404 µM. In addition, the TGI in test [2] is over 25 µM; in test [3], over 25 µM; in [4], 2.52 µM; in test [5], over 25 µM; in test [6] it was 0.00569 µM and < 0.0025 µM; in [8], over 25 µM. Besides, the total growth inhibition concentration (TGI) in test [9] and in test [10] was over 25 µM in each case.

Turning to `C/C(=N\O)c1cccc(Nc2cc(-c3ccccc3)nc3c(O)cccc23)c1`, the GI50 is 2.78 µM in test [1]; 2.96 µM in [2]; 3.68 µM in test [3]; 2.41 µM in test [4]; 2.77 µM in test [5]; 4.71 µM in test [6]. The GI50 in [7] is 1.91 µM; in test [8], 5.67 µM; in test [9], 7.37 µM; in test [10], 0.671 µM. Moreover, the concentration for total growth inhibition (TGI) in test [1] was over 37.3 µM; in [2], 16.6 µM; in [3] it was 14.2 µM; in test [4] it was 15.9 µM; in [5] it was 20.9 µM; in test [6] it was over 66.3 µM. Besides, the concentration for total growth inhibition (TGI) in test [7] came out at 13.7 µM; in [8], 25.4 µM; in [9], 37.5 µM.

For the compound `O=C(Nc1ccc(I)cc1)c1cccc([N+](=O)[O-])c1O`, the GI50 in test [1] was 2.91 µM; in [2] it was 6.46 µM; in test [3], 4.19 µM; in [4] it was 3.11 µM; in test [5] it was 3.36 µM; in test [6] it was 2.96 µM. Further, the GI50 in [7] is 0.373 µM; in [8], 2.47 µM; in test [9], 2.81 µM; in [10], 2.39 µM. In addition, the TGI was over 100 µM in [1]; over 100 µM in test [2]; 44.3 µM in test [3]; 13.8 µM in [4]; 40.9 µM in test [5]; 9.32 µM in [6]. In addition, the TGI was 3.22 µM in test [7], 9.12 µM in test [8], 33.5 µM in [9] and 11.3 µM in [10].

As for `C=C1C(=O)OC2CC1C(OC(C)=O)C/C(C)=C/CC/C(C)=C\CCC2(C)O` (stereo not given), the TGI in test [1] is 14.2 µM and 9.91 µM; in [2] it was 14.6 µM and 23.1 µM; in test [3], 17.5 µM and 21.1 µM; in test [4], 12.2 µM and 7.66 µM; in [5], 13.5 µM and 3.63 µM; in test [6], 2.64 µM. The TGI in test [7] was 13.2 µM and 9.51 µM; in test [8] it was 15 µM; in test [9], 12.1 µM and 34.2 µM; in test [10] it was 46.8 µM and 37 µM.

On to `O=Cc1ccc(-c2ccc(-c3ccc(C=O)o3)[se]2)o1`, for which the GI50 is over 100 µM in test [1]; over 100 µM in test [2]; over 100 µM in [3]; over 100 µM in test [4]; over 80 µM in test [5]; over 100 µM in [6]. Also, the GI50 in [7] is 57.1 µM; in test [8] it was over 100 µM; in [9] it was 41.7 µM; in test [10], over 46.2 µM. The concentration for total growth inhibition (TGI) in [1], in [2], in test [3], in [4], in test [5] and in test [6] was over 100 µM in each case. The TGI in test [7] was over 100 µM; in test [8], over 100 µM; in test [9], over 100 µM; in test [10], over 65.6 µM.

With `O=C1C=CC(=O)N1c1ccc(I)cc1`, the total growth inhibition concentration (TGI) in test [1] is 34.3 µM; in [2], 38 µM; in [3] it was 35.1 µM; in [4], 30.9 µM; in test [5], 33.9 µM; in test [6], 9.73 µM. Besides, the total growth inhibition concentration (TGI) turned out to be 46.6 µM in test [7], 33.1 µM in [8], 46.3 µM in test [9] and 55.5 µM in [10].

Consider `O=C(O)c1ccc(Oc2nc3ccccc3s2)cc1`, for which the TGI in test [1], in test [2], in test [4], in [5], in [6] and in [7] was over 100 µM throughout. The TGI in test [8], in [9] and in test [10] was over 100 µM in each case.

Turning to `CCOC(=O)[C@@H](C)C[C@H](Cc1ccccc1)NC(=O)c1csc([C@@H](C[C@H](C(C)C)N(C)C(=O)[C@@H](NC(=O)[C@H]2C[C@H](O)CCN2C)C(C)C)OC(C)=O)n1`, the GI50 in test [1] is 0.0682 µM; in [2] it was 0.00421 µM; in [3] it was 0.00295 µM; in test [5] it was 0.149 µM; in [6], 0.00278 µM; in [7], 0.00663 µM. For the same compound, the GI50 in [8] was 0.00208 µM; in test [9], 0.0105 µM; in test [10], 0.00781 µM. Further, the concentration for total growth inhibition (TGI) in [1] is over 16.7 µM; in test [3], over 16.7 µM; in test [5] it was over 16.7 µM; in [6], 0.012 µM; in test [7], over 4.46 µM; in test [8] it was over 16.7 µM. Further, the results for the TGI in test [9] and in test [10] were 0.34 µM and over 16.7 µM, respectively.

Turning to `COc1cc2c(cc1OCCCCn1c(-c3cccs3)nc3ccccc31)N=C[C@@H]1CCCN1C2=O`, the GI50 in [1] was 0.949 µM; in test [2] it was 1.32 µM; in test [3], 2.08 µM; in test [4] it was 1.75 µM; in test [5], 3.19 µM; in test [6] it was 5.18 µM. For the same compound, the GI50 in test [7] was 1.33 µM; in test [8], 1.74 µM; in test [9], 2.13 µM. Also, the TGI in [1] amounted to 6.71 µM; in [2], 6.74 µM; in test [3], 4.5 µM; in [5], 10.5 µM; in test [6], 53.4 µM; in test [7], 5.46 µM. Further, the TGI was 3.27 µM in test [8] and 6.51 µM in test [9].

For `O=c1[nH]c(F)nc2c1ncn2C1OC(CO)C(O)C1O` (stereo not given), the GI50 in test [2], in test [3], in test [4], in test [5], in test [6] and in test [7] was over 100 µM each time. For the same compound, the GI50 in test [8], in test [9] and in test [10] was over 100 µM throughout. The TGI in [2], in test [3], in test [4], in test [5], in [6] and in test [7] was over 100 µM throughout. For the same compound, the TGI in test [8], in [9] and in test [10] was over 100 µM in each case.

For the compound `CCC(C)CC(C)C(=O)c1c(O)ccn(O)c1=O` (stereo not given), the GI50 in test [2] is 2.1 µM; in test [3], 6 µM; in test [4], 1.08 µM; in [5], 0.46 µM; in [6] it was 0.473 µM; in test [7], 0.686 µM. The GI50 was 1.44 µM in test [8], 15.8 µM in test [9] and 5.22 µM in [10]. The TGI is over 100 µM in test [2]; over 100 µM in test [3]; over 100 µM in test [4]; over 100 µM in test [5]; 12.6 µM in test [6]; 33.7 µM in test [7]. The figures for the TGI in [8], in test [9] and in test [10] were 10.1 µM, 75.3 µM and 49.6 µM, respectively.
